Source: patent publication US20080070867A1, “2-Imidazolone and 2-Imidazolidinone Heterocyclic Inhibitors of Tyrosine Phosphatases” (Metabasis Therapeutics, Inc., priority 2005, published 2008)

Biological target: T1, Human recombinant PTP-1B (Homo sapiens, UniProt P18031)
T1 construct: Human recombinant PTP-1B, containing amino acids 1-321, fused to GST enzyme; GST (glutathione S-transferase)
T1 sequence (P18031 1-321): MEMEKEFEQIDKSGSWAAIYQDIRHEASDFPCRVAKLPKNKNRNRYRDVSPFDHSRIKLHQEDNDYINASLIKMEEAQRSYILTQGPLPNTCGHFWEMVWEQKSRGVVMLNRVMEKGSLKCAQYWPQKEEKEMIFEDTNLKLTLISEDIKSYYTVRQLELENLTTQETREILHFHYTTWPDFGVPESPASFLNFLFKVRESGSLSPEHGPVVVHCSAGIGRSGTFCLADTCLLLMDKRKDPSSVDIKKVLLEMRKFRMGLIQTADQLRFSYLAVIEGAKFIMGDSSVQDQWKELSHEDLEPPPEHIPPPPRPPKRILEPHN
Experiment: Assay for PTP-1B Activity (pNPP substrate)
Type: biochemical
Details: human recombinant PTP-1B (1-321) GST fusion, 2 mM pNPP, pH 7.4, 30° C., 20 min; read-out: Activity Code (IC50 range)
In short: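 GST-fused human PTP-1B (aa 1-321) hydrolysed 2 mM pNPP in 50 mM HEPES pH 7.4, 100 mM NaCl, 2 mM EDTA, 3 mM DTT for 20 min at 30 °C, after a 2 min compound premix. K2CO3 stopped the reaction, with pNP read at 405 nm. Initial rate was plotted against inhibitor concentration.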

| SMILES | IC50 [µM] |
| --- | --- |
| O=c1n(Cc2ccccc2)ccn1Cc1ccc(C(F)(F)P(=O)(O)O)c(Br)c1 [Compound 71, {[4-(3-Benzyl-2-oxo-2,3-dihydro-imidazol-1-ylmethyl)-2-bromo-phenyl]-difluoro-methyl}-phosphonic acid] | 2.5 to 25 |
| CC(C)OC(=O)OC(C)OP(=O)(O)C(F)(F)c1ccc(Cn2c(-c3ccc(Cl)cc3)cn(Cc3ccccc3)c2=O)cc1Br (stereo not shown) [Compound 72, ({4-[3-Benzyl-5-(4-chloro-phenyl)-2-oxo-2,3-dihydro-imidazol-1-ylmethyl]-2-bromo-phenyl}-difluoro-methyl)-phosphonic acid mono-(1-isopropoxy-carbonyloxy-ethyl) ester] | 2.5 to 25 |
| CC(C)(C)C(=O)OCOC(=O)COc1ccc(-c2cn(C3CC3)c(=O)n2Cc2ccc(C(F)(F)P(=O)(O)OCOC(=O)C(C)(C)C)c(Br)c2)cc1 [Compound 77, 2,2-Dimethyl-propionic acid 2-{4-[3-(3-bromo-4-{[(2,2-dimethyl-propionyloxy-methoxy)-hydroxy-phosphoryl]-difluoro-methyl}-benzyl)-1-cyclopropyl-2-oxo-2,3-dihydro-1H-imidazol-4-yl]-phenoxy}-acetoxymethyl ester] | 0.25 to 2.5 |
| Cn1cc(-c2ccc(C(=O)OCOC(=O)C(C)(C)C)cc2)n(Cc2ccc(C(F)(F)P(=O)(O)OCOC(=O)C(C)(C)C)c(Br)c2)c1=O [Compound 80, 4-[3-(3-Bromo-4-{[(2,2-dimethyl-propionyloxy-methoxy)-hydroxy-phosphoryl]-difluoro-methyl}-benzyl)-1-methyl-2-oxo-2,3-dihydro-1H-imidazol-4-yl]-benzoic acid 2,2-dimethyl-propionyloxymethyl ester] | 2.5 to 25 |
| COC(=O)c1ccc(Cn2ccn(Cc3ccc(C(F)(F)P(=O)(O)O)c(Br)c3)c2=O)cc1 [Compound 81, 4-{3-[3-Bromo-4-(difluoro-phosphono-methyl)-benzyl]-2-oxo-2,3-dihydro-imidazol-1-ylmethyl}-benzoic acid methyl ester] | 0.25 to 2.5 |
| COC(=O)COc1ccc(Cn2ccn(Cc3ccc(C(F)(F)P(=O)(O)O)c(Br)c3)c2=O)cc1Cl [Compound 82, (4-{3-[3-Bromo-4-(difluoro-phosphono-methyl)-benzyl]-2-oxo-2,3-dihydro-imidazol-1-ylmethyl}-2-chloro-phenoxy)-acetic acid methyl ester] | 0.25 to 2.5 |
| O=C(O)COc1ccc(Cn2ccn(Cc3ccc(C(F)(F)P(=O)(O)O)c(Br)c3)c2=O)cc1Cl [Compound 83, (4-{3-[3-Bromo-4-(difluoro-phosphono-methyl)-benzyl]-2-oxo-2,3-dihydro-imidazol-1-ylmethyl}-2-chloro-phenoxy)-acetic acid] | 0.25 to 2.5 |
| CCCCCCCCCCCCCCCCOCCCOP(=O)(O)C(F)(F)c1ccc(Cn2c(-c3ccc(S(C)(=O)=O)cc3)c[nH]c2=O)cc1Br [Compound 84, ({2-Bromo-4-[5-(4-methanesulfonyl-phenyl)-2-oxo-2,3-dihydro-imidazol-1-ylmethyl]-phenyl}-difluoro-methyl)-phosphonic acid mono-(3-hexadecyloxy-propyl) ester] | 2.5 to 25 |
| O=C(O)c1ccc(Cn2ccn(Cc3ccc(C(F)(F)P(=O)(O)O)c(Br)c3)c2=O)cc1 [Compound 85, 4-{3-[3-Bromo-4-(difluoro-phosphono-methyl)-benzyl]-2-oxo-2,3-dihydro-imidazol-1-ylmethyl}-benzoic acid] | 0.25 to 2.5 |
| COC(=O)c1ccc(Cn2c(=O)n(Cc3ccc(C(F)(F)P(=O)(O)O)c(Br)c3)c3ccccc32)cc1 [Compound 86, 4-{3-[3-Bromo-4-(difluoro-phosphono-methyl)-benzyl]-2-oxo-2,3-dihydro-benzoimidazol-1-ylmethyl}-benzoic acid methyl ester] | 0.25 to 2.5 |
| O=c1[nH]ccn1Cc1ccc(C(F)(F)P(=O)(O)O)c(Br)c1 [Compound 87, {[2-Bromo-4-(2-oxo-2,3-dihydro-imidazol-1-ylmethyl)-phenyl]-difluoro-methyl}-phosphonic acid] | 2.5 to 25 |
| O=C1N(Cc2ccccc2)CCN1Cc1ccc(C(F)(F)P(=O)(O)O)c(Br)c1 [Compound 89, {[4-(3-Benzyl-2-oxo-imidazolidin-1-ylmethyl)-2-bromo-phenyl]-difluoro-methyl}-phosphonic acid] | 0.25 to 2.5 |

The remaining lines, values ahead:

| IC50 [µM] | SMILES |
| --- | --- |
| 0.1 to 0.249 | CCOC(=O)C(C)(C)Oc1ccc(-c2cn(C3CC3)c(=O)n2Cc2ccc(C(F)(F)P(=O)(O)O)c(Br)c2)cc1 [Compound 73, 2-(4-{3-[3-Bromo-4-(difluoro-phosphono-methyl)-benzyl]-1-cyclopropyl-2-oxo-2,3-dihydro-1H-imidazol-4-yl}-phenoxy)-2-methyl-propionic acid ethyl ester] |
| < 0.099 | CC(C)(Oc1ccc(-c2cn(C3CC3)c(=O)n2Cc2ccc(C(F)(F)P(=O)(O)O)c(Br)c2)cc1)C(=O)O [Compound 74, 2-(4-{3-[3-Bromo-4-(difluoro-phosphono-methyl)-benzyl]-1-cyclopropyl-2-oxo-2,3-dihydro-1H-imidazol-4-yl}-phenoxy)-2-methyl-propionic acid] |
| 0.1 to 0.249 | CCOC(=O)n1cc(-c2ccc(C#N)cc2)n(Cc2ccc(C(F)(F)P(=O)(O)O)c(Br)c2)c1=O [Compound 75, 3-[3-Bromo-4-(difluoro-phosphono-methyl)-benzyl]-4-(4-cyano-phenyl)-2-oxo-2,3-dihydro-imidazole-1-carboxylic acid ethyl ester] |
| 0.25 to 2.5 | CC(C)(C)C(=O)OCOP(=O)(O)C(F)(F)c1ccc(Cn2c(-c3ccc(S(C)(=O)=O)cc3)cn(Cc3ccccc3)c2=O)cc1Br [Compound 76, 2,2-Dimethyl-propionic acid ({4-[3-benzyl-5-(4-methanesulfonyl-phenyl)-2-oxo-2,3-dihydro-imidazol-1-ylmethyl]-2-bromo-phenyl}-difluoro-methyl)-hydroxy-phosphinoyloxymethyl ester] |
| 0.1 to 0.249 | N#Cc1ccc(-c2c[nH]c(=O)n2Cc2ccc(C(F)(F)P(=O)(O)O)c(Br)c2)cc1 [Compound 78, ({2-Bromo-4-[5-(4-cyano-phenyl)-2-oxo-2,3-dihydro-imidazol-1-ylmethyl]-phenyl}-difluoro-methyl)-phosphonic acid] |
| 0.1 to 0.249 | CC(C)OC(=O)OC(C)OP(=O)(O)C(F)(F)c1ccc(Cn2c(-c3ccc(S(C)(=O)=O)cc3)cn(Cc3ccccc3)c2=O)cc1Br (stereo not shown) [Compound 79, ({4-[3-Benzyl-5-(4-methanesulfonyl-phenyl)-2-oxo-2,3-dihydro-imidazol-1-ylmethyl]-2-bromo-phenyl}-difluoro-methyl)-phosphonic acid mono-(1-isopropoxy-carbonyloxy-ethyl) ester] |
| < 0.099 | O=c1n(Cc2ccc(C(F)(F)P(=O)(O)O)c(Br)c2)ccn1Cc1ccc(C(F)(F)P(=O)(O)O)c(Br)c1 [Compound 88, [(2-Bromo-4-{3-[3-bromo-4-(difluoro-phosphono-methyl)-benzyl]-2-oxo-2,3-dihydro-imidazol-1-ylmethyl}-phenyl)-difluoro-methyl]-phosphonic acid] |
